Measured values: patent US8871753B2, “Macrocyclic compounds and their use as kinase inhibitors” (Incyte Corporation, priority 2008, dated 2014)
Structures can show the parent of a compound that is named as a salt. Where two headings read alike, the source gives them in different places.

Key:
Type in all cases: biochemical
[1] = target: TYK2 (Homo sapiens, UniProt P29597); assay: TYK2 kinase inhibition (Table A1)
[2] = target: T1, human JAK1 (a.a. 837-1142) (Homo sapiens, UniProt P23458); assay: In vitro JAK kinase assay (HTRF, phosphorylation of a biotinylated peptide), JAK1; conditions: read-out: JAK1 IC50
T1 construct: human JAK1 (a.a. 837-1142); His tag (N); made in house; host or cells: insect cells (baculovirus)
T1 sequence (P23458 849-1154): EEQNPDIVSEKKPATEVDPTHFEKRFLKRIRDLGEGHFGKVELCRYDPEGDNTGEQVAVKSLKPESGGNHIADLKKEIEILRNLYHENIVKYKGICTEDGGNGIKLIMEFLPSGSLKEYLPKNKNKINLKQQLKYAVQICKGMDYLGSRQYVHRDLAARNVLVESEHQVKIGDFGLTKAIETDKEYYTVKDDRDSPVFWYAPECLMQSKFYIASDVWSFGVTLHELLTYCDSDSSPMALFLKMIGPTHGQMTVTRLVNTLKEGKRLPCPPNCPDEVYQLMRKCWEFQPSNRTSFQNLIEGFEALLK
How it was run: (§1)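 Kinase activity was measured as phosphorylation of a biotinylated peptide, with ATP at 90 μM for JAK1, 30 μM for JAK2 and 3 μM for JAK3. Reactions ran 1 hr at room temperature, were stopped with EDTA plus SA-APC and Eu-Py20, and were read by HTRF after 40 minutes of antibody binding.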

[3] = target: T2, human JAK3 (a.a. 781-1124) (Homo sapiens, UniProt P52333); assay: In vitro JAK kinase assay (HTRF, phosphorylation of a biotinylated peptide), JAK3
T2 construct: JAK3 (a.a. 781-1124); His tag (N); made in house; host or cells: insect cells (baculovirus)
T2 sequence (P52333 781-1124): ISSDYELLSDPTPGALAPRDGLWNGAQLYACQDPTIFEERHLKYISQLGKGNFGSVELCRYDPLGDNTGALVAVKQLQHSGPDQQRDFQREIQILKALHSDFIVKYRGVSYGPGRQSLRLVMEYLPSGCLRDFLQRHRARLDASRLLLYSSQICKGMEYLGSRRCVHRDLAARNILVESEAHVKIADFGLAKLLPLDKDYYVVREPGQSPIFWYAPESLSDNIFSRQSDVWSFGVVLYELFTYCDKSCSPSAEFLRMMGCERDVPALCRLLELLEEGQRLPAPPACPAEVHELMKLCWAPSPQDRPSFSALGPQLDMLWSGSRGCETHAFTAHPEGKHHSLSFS
How it was run: as §1

[4] = target: T3, Recombinant Human Anaplastic Lymphoma Kinase (Homo sapiens, UniProt Q9UM73); assay: ALK HTRF kinase assay
T3 construct: purchased Invitrogen, Carlsbad, Calif
T3 sequence (Q9UM73 19-1620): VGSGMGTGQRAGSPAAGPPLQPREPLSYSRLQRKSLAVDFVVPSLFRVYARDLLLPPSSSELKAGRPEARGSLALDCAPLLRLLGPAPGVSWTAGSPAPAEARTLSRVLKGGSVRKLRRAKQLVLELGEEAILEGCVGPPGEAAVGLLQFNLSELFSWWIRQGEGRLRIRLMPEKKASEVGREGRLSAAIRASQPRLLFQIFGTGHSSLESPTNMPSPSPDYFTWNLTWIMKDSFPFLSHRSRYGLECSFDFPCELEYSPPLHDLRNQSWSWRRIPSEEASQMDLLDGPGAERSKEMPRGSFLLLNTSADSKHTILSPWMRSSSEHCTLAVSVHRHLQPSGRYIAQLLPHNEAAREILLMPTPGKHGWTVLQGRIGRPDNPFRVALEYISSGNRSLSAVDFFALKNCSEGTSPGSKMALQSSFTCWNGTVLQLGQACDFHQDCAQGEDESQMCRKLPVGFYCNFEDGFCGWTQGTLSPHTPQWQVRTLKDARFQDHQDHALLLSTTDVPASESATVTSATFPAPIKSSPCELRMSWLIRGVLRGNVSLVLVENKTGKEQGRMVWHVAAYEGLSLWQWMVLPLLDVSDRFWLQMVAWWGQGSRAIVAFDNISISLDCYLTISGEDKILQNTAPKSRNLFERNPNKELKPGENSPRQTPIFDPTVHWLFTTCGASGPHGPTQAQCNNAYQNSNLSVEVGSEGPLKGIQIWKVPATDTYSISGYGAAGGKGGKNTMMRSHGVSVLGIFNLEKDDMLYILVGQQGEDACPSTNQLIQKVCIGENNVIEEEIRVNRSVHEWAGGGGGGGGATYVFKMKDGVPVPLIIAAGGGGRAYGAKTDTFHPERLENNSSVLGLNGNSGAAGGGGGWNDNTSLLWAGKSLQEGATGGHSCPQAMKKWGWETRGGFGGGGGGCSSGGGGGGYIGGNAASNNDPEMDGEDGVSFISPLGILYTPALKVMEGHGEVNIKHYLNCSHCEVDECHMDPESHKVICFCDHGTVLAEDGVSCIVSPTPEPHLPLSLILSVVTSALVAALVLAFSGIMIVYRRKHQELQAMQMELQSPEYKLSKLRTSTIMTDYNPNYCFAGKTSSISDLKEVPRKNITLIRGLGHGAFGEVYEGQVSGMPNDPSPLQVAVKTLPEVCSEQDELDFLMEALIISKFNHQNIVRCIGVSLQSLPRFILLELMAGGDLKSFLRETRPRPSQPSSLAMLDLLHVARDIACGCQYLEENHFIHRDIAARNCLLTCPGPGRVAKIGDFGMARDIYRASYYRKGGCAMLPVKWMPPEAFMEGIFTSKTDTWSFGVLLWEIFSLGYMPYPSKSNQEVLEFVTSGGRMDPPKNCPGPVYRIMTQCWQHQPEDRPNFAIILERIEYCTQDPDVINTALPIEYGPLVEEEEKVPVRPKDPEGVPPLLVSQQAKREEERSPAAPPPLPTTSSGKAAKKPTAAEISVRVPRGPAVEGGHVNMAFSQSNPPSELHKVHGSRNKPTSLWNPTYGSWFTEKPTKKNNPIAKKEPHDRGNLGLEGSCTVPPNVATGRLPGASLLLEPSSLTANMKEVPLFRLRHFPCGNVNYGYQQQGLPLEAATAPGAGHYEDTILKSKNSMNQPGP
How it was run: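 Biotinylated peptide substrate, recombinant human ALK; detection via europium-chelate antibody to phosphotyrosine paired with streptavidin-APC. Potency expressed as IC50 from four-parameter curve fitting.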

[5] = target: T4, human JAK2 (a.a. 828-1132) (Homo sapiens, UniProt O60674); assay: In vitro JAK kinase assay (HTRF, phosphorylation of a biotinylated peptide), JAK2
T4 construct: JAK2 (a.a. 828-1132); His tag (N); made in house; host or cells: insect cells (baculovirus)
T4 sequence (O60674 828-1132): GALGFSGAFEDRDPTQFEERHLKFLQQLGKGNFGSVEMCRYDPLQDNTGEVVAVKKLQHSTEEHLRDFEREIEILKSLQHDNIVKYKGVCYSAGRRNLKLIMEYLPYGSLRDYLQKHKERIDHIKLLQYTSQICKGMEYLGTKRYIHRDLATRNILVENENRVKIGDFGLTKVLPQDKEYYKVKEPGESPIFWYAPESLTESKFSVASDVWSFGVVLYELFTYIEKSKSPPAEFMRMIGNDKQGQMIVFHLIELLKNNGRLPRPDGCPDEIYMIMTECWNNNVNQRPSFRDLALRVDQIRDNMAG
How it was run: as §1

[6] = compound at a concentration of 500 nM or 1 mM (not specified), cells shown as percentage

Sequence of TYK2 (P29597 whole entry): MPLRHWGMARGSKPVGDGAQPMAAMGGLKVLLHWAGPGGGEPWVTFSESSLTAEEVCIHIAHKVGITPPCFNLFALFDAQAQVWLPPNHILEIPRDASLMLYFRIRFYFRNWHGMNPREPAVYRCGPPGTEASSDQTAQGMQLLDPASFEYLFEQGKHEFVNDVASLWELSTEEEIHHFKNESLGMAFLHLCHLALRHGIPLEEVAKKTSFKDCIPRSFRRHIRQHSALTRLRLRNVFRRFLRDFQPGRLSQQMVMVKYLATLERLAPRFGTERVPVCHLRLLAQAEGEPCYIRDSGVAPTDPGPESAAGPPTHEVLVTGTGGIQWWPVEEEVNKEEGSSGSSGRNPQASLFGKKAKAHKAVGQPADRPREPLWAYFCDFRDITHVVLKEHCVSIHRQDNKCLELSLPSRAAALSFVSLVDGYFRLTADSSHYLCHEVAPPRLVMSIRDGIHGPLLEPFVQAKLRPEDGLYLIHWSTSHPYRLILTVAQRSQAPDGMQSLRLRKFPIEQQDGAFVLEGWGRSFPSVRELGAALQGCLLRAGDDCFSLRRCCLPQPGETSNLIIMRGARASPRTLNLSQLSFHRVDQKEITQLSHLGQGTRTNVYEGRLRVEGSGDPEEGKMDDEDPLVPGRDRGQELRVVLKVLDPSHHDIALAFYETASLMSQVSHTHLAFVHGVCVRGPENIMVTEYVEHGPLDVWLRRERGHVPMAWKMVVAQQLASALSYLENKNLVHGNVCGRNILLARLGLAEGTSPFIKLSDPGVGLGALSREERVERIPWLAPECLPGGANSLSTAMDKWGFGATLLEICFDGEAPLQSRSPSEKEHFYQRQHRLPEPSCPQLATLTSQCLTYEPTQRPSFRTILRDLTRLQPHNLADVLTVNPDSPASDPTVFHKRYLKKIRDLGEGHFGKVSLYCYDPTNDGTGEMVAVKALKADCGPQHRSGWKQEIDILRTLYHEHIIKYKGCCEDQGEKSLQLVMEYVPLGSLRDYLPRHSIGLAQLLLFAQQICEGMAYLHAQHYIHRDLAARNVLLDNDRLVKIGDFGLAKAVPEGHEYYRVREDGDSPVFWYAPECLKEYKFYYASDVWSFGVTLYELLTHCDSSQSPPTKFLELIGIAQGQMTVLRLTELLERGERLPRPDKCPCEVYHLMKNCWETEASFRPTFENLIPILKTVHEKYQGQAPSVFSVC

IC50 ([1]; Table B1) | IC50 ([2]; Table B1) | IC50 ([3]; Table B1) | IC50 ([5]; Table B1) | IC50 ([1]; Table D1) | IC50 ([2]; Table D1) | IC50 ([3]; Table D1) | IC50 ([4]; Table D1, 90 μM ATP) | IC50 ([5]; Table D1) | SMILES | other results
0.188 µM | 0.018 µM | 0.138 µM | 0.0022 µM |  |  |  |  |  | COc1ccc(CN2CCN(Cc3cc4cc(c3)Nc3nc(ncc3Cl)Nc3cccc(c3)CC4)CC2)cc1 [Example B197, 6-Chloro-11-{[4-(4-methoxybenzyl)piperazin-1-yl]methyl}-2,4,8,22-tetraazatetracyclo[14.3.1.1(3,7).1(9,13)]docosa-1(20),3(22),4,6,9(21),10,12,16,18-nonaene tris(trifluoroacetate)] | IC50 ([4]; Table B1, cells without percent sign): > 1 µM
 |  |  |  |  |  |  |  |  | O=C(CC1CCN(C(=O)c2ncco2)CC1)Nc1ccc2cc1CCc1cncc(c1)Nc1ncc(Cl)c(n1)N2 [Example A139, N-[6-Chloro-2,4,8,18,22-pentaazatetracyclo[14.3.1.1(3,7).1(9,13)]docosa-1(20),3(22),4,6,9(21),10,12,16,18-nonaen-12-yl]-2-[1-(1,3-oxazol-2-ylcarbonyl)piperidin-4-yl]acetamide bis(trifluoroacetate)] | IC50 [1]: 0.0034 µM; IC50 ([2]; method AA1 (90 μM ATP) or AA2 (1000 μM ATP), not stated per value): 0.0011 µM; IC50 ([3]; method AA1 (3 μM ATP) or AA2 (1000 μM ATP), not stated per value): 0.178 µM; ALK % of inhibition at a concentration of 500 nM or 1 mM ([4]; compound at 500 nM or 1 mM, 90 μM ATP): 27%; IC50 ([5]; method AA1 (30 μM ATP) or AA2 (1000 μM ATP), not stated per value): 0.0076 µM
0.026 µM | 0.004 µM | 0.072 µM | 0.011 µM |  |  |  |  |  | Cn1ccc(C(=O)N2CC[C@H](NC(=O)Nc3ccc4cc3CCc3cccc(c3)Nc3ncc(Cl)c(n3)N4)C2)n1 [Example B232, N-[6-Chloro-2,4,8,22-tetraazatetracyclo[14.3.1.1(3,7).1(9,13)]docosa-1(20),3(22),4,6,9(21),10,12,16,18-nonaen-12-yl]-N′-{(3S)-1-[(1-methyl-1H-pyrazol-3-yl)carbonyl]pyrrolidin-3-yl}urea bis(trifluoroacetate)] | ALK % of inhibition at a concentration of 500 nM or 1 mM [4, 6]: 10%
 |  |  |  | 0.06 µM | 0.05 µM | 0.08 µM | 1.25 µM | 0.026 µM | Clc1cnc2nc1Nc1cccc(c1)NCCCc1cccc(c1)N2 [Example D75, 6-Chloro-2,4,8,14,24-pentaazatetracyclo[16.3.1.1(3,7).1(9,13)]tetracosa-1(22),3(24),4,6,9(23),10,12,18,20-nonaene bis(trifluoroacetate)] | 
> 0.4 µM | 0.0034 µM | > 0.4 µM | 0.045 µM |  |  |  |  |  | CN(Cc1ccc2cc1CCc1cncc(c1)Nc1ncc(Cl)c(n1)N2)CC1CCN(C(=O)Nc2cccnc2)CC1 [Example B348, 4-{[{[6-Chloro-2,4,8,18,22-pentaazatetracyclo[14.3.1.1(3,7).1(9,13)]docosa-1(20),3(22),4,6,9(21),10,12,16,18-nonaen-12-yl]methyl}(methyl)amino]methyl}-N-pyridin-3-ylpiperidine-1-carboxamide tetrakis(trifluoroacetate)] | ALK % of inhibition at a concentration of 500 nM or 1 mM ([4]; percentage inhibition of the example compound at a concentration of 500 nM or 1 mM (not specified which)): 47%
 |  |  |  | 0.3 µM | 0.151 µM | 0.065 µM | > 1 µM | 0.187 µM | CC(=O)N1Cc2cccc(c2)Nc2nc(ncc2Cl)Nc2cccc1c2 [Example D71, 15-Acetyl-6-chloro-2,4,8,15,22-pentaazatetracyclo[14.3.1.1(3,7).1(9,13)]docosa-1(20),3(22),4,6,9(21),10,12,16,18-nonaene trifluoroacetate] | 
0.0068 µM | 0.00069 µM | 0.03 µM | 0.0043 µM |  |  |  |  |  | CNC(=O)Nc1ccc2cc1CCc1cncc(c1)Nc1ncc(Cl)c(n1)N2 [Example B135, N-[6-Chloro-2,4,8,18,22-pentaazatetracyclo[14.3.1.1(3,7).1(9,13)]docosa-1(20),3(22),4,6,9(21),10,12,16,18-nonaen-12-yl]-N′-methylurea bis(trifluoroacetate)] | ALK % of inhibition at a concentration of 500 nM or 1 mM [4, 6]: 13%
 |  |  |  | 0.0056 µM | 0.0089 µM | 0.011 µM | 0.4 µM | 0.0031 µM | Clc1cnc2nc1Nc1cccc(c1)CCCNc1cccc(c1)N2 [Example D77, 6-Chloro-2,4,8,17,24-pentaazatetracyclo[16.3.1.1(3,7).1(9,13)]tetracosa-1(22),3(24),4,6,9(23),10,12,18,20-nonaene bis(trifluoroacetate)] | 
